{"source": "patent US5705687A", "about": "“Neurotropic drug and method for preparation of same” (priority 1993, dated 1998)", "test_system": "mice", "assay": "Soporific action of barbital sodium", "conditions": "for Duration of sleep, % effect / Lateral position, % effect: barbital sodium alone = 100; for increase of sleep duration over control group: barbital sodium", "note": "Where “and” joins values, the source holds several entries; their conditions need not be identical. Equal values may be shown once. Where a name gives a salt, the structure may show the parent alone."}
{"compound": "CC(C)(CO)C(=O)C(=O)NCCCC(=O)O", "note": "[KPA-Ca, calcium salt of ketopantoyl aminobutyrate]", "values": [{"measurement": "Duration of sleep, % effect", "setting": "1 mg/kg", "result": 99.9, "unit": "%"}, {"measurement": "Lateral position, % effect", "setting": "1 mg/kg", "result": 69.6, "unit": "%"}, {"measurement": "Duration of sleep, % effect", "setting": "10 mg/kg", "result": 122.7, "unit": "%"}, {"measurement": "Lateral position, % effect", "setting": "10 mg/kg", "result": 61.4, "unit": "%"}, {"measurement": "increase of sleep duration over control group", "setting": "25 mg/kg", "result": 126.5, "unit": "%"}, {"measurement": "Duration of sleep, % effect", "setting": "25 mg/kg", "result": 226.5, "unit": "%"}, {"measurement": "Lateral position, % effect", "setting": "25 mg/kg", "result": 67.3, "unit": "%"}, {"measurement": "increase of sleep duration over control group", "setting": "50 mg/kg", "result": "95.1% and 95%"}, {"measurement": "Duration of sleep, % effect", "setting": "50 mg/kg", "result": 195.1, "unit": "%"}, {"measurement": "Lateral position, % effect", "setting": "50 mg/kg", "result": 68.7, "unit": "%"}, {"measurement": "Duration of sleep, % effect", "setting": "100 mg/kg", "result": 229.3, "unit": "%"}, {"measurement": "Lateral position, % effect", "setting": "100 mg/kg", "result": 66.7, "unit": "%"}, {"measurement": "increase of sleep duration over control group", "result": 129.3, "unit": "%"}]}
